Experiments:
[1] = test system: unweighting atrophy of the soleus muscle; assay: Inhibition of unweighting atrophy of the soleus muscle in juvenile rats (muscle protein content); type: in vivo, rat; conditions: for Protein, End (day 3 of unweighting) / Effect (%), change in protein content during day 3 of unweighting: Table 2; for Protein, End (day 3 of unweighting): 24 hours after in situ soleus injection at day 2 of unweighting, mersalyl 200 nM aqueous; for Protein, End (day 3 of unweighting) / Protein, Treatment (unweighted muscle): MCP inhibitor 1 mM in DMSO; for Effect (%), change in protein content during day 3 of unweighting: End versus Start (estimated day 2 content); for Effect (%) on unweighted muscle protein / Protein, Treatment (unweighted muscle): Table 3; for Effect (%) on unweighted muscle protein: Treatment versus Vehicle contralateral muscle; for Protein, Treatment (unweighted muscle): treated soleus, contralateral muscle received vehicle, mersalyl 200 nM
Protocol: The effect of several inhibitors on the unweighting atrophy of the soleus muscle in juvenile rats was determined. See Tischler, M. E. (1990) Metabolism 39/7: 756-763 (hereinafter "Tischler--1990") for a general discussion of the procedure.
Juvenile female Sprague-Dawley rates (80-90 g) were tail-cast, hind limb suspended as in Jetspers, S. R. and Tischler, M. E., (1984) J. Appl. Physiol. 57: 1472-1479. The animal's hind limbs were elevated above the floor of the cage with each animal housed individually. Animals had free access to food and water, and were weighed at the time of suspension and at time of termination. During the suspension period the animals were checked daily to ensure that their toes were not touching the floor of the cage, and that there was no swelling of the tail due to the cast.
Each experiment began with the suspension of 20 rats which were randomly divided into 4 groups of 5 animals each. Group A was suspended for just 2 days and provided baseline data to approximate the soleus muscle size in other animals suspended for longer times. Average body weights for the groups at the outset of the study were compared and used as a correction factor for body size differences. […] See Tischler--1990. At 2 days after unweighting commenced, an aqueous solution of mersalyl (200 nM; 4 μl/100 g initial body wt) was injected into one soleus, as described previously. The contralateral muscle was injected with a similar volume of 0.9% saline ("Vehicle"). The animals were maintained under Innovar-vet (10 μl/100 g body wt) tranquilization during the in situ injection procedure. After the injections, the animals were suspended for an additional 24 hours and the soleus was removed. Groups C and D for each experiment were used for testing each of two different embodiments of the disclosed compounds.
Animals were treated as in group B, except that 1 mM MCP inhibitor, contained in dimethysulfoxide (DMSO), was injected into the soleus of one leg and DMSO only into the contralateral soleus. Thus each experiment consisted of two control groups and the testing of MCP inhibitors of the invention. The completion of five such experiments with different pairs of inhibitors provided for an "n" value of 10 for testing each MCP inhibitor and with each tested in two different shipments of animals.
After the animal was sacrificed, the soleus was excised, trimmed of fat and connective tissue, and carefully weighed. The muscle was then homogenized in 10% trichloroacetic acid (TCA) and the precipitated protein pelleted by centrifugation. The pellet was then washed once with 10% TCA and once with ethanol:ether (1:1). The final pellet was solubilized in 4 ml of 1N sodium hydroxide. The sample was then analyzed for protein content by the biuret procedure, using albumin as a standard.
The effect of MCP inhibitors on total muscle protein content was examined primarily by paired comparison with the untreated contralateral muscle. The ratio of contents was calculated and then analyzed statistically by analysis of variance ("ANOVA"). The left leg was always the treated leg so that the protein content ratios could be compared to the non-treated control animals as well. In this way, a significant difference can be shown by comparing the protein content of the two legs, as well as the relative effectiveness of the tested MCP inhibitors. A paired student test was also performed for the effect of each separate treatment. The non-treated control data also provided an estimate of protein content of day 2. This allowed approximation of the protein changes over the 24 hours of treatment for each of the Groups B, C, and D.

[2] = test system: processing of electroporated OVA by M12.B6 cells; assay: Inhibition of MHC-I processing of electroporated OVA; type: cell-based, mouse; conditions: FIGS. 2 and 3, IL-2 secretion by T hybridoma cells
Protocol: Compounds of the invention were assayed for the ability to inhibit the processing of exogenous OVA antigen by the class I major histocompatibility pathway (MHC-I). The MCP inhibitors were applied to a functional antigen processing system that allows inclusion of the inhibitor within the antigen processing cell during exposure to antigen, followed by fixation of the processing cell. T cell hybridomas are then added to the processing cells in the absence of inhibitor to determine the expression of peptide-MHC-I complexes, which reflects antigen processing prior to fixation.
Cells were grown at 37° C. in a humidified atmosphere maintained at 5% CO2 in a standard medium: DMEM (Gibco, St. Louis, Mo.) with 10% fetal calf serum (Hyclone, Logan Utah), 5×10^-5 M 2-mercaptoethanol, antibiotics and the following supplements: L-arginine HCl (116 mg/L), L-asparagine (36 mg/L), NaHCO3 (2 g/L), sodium pyruvate (1 mM). See also Harding, C. V., (1992) Eur. J. Immunol. 22: 1865-1869. […]
Electroporation was performed with a Gibco BEL Electroporator using 0.4 cm gap cuvette chambers. […] The extent of processing, (i.e., the level of specific peptide-MHC complexes expressed) was determined by the ability of the M12.B6 cells to stimulate IL-2 secretion by B3.1 or DOBW T hybridoma cells. […]

[3] = test system: wild-type and FALS mutant (Ala4→Val, Ile113→Thr) SOD-1 in 293 cells; assay: Dose response of SOD-1 isoforms in stably transformed 293 cell lines; type: cell-based, human
Protocol: Cells were maintained in G418 selection for three weeks at which time drug selection was removed and the G418-resistant colonies of each transformed cell type were pooled for further growth. Compound 14 was utilized in these studies.
Cell lines expressing the indicated SOD-1 isoforms were incubated with various concentrations of compound 14 for 24 hours at which time the SOD-1 levels were measured by densitometric scanning of immunoblots.

| SMILES | Protein, End (day 3 of unweighting) [1] [mg/muscle] | Effect (%), change in protein content during day 3 of unweighting [1] [%] | Effect (%) on unweighted muscle protein [1] [%] | Protein, Treatment (unweighted muscle) [1] [mg/muscle] | Effect on MHC-1 OVA processing [2] | Concentration giving maximal SOD-1 accumulation ([3]; 24 hours, FIG. 6) | Reduction of wild-type and mutant SOD-1 degradation ([3]; summary statement) | Accumulation of SOD-1 protein levels ([3]; various concentrations, 24 hours, FIG. 6) | Effect on turnover of the wild-type SOD-1 protein ([3]; wild-type SOD-1 cell line, dose response) |
| --- | --- | --- | --- | --- | --- | --- | --- | --- | --- |
| CC(C)C[C@@H](C=O)NC(=O)[C@H](CCCNC(=N)N[N+](=O)[O-])NC(=O)C(CCCCCCCCC#N)C1CCCC1 (stereo partly drawn) [Compound 14, 10-cyano-2-cyclopentyldecanoyl-N^g-nitro-L-arginyl-L-leucinal] | 6.4 | 0 | 7 | 6.4 | effectively inhibit OVA processing | approximately 20 μM | reduces wild-type and mutant SOD-1 degradation in a dose-dependent manner | significant accumulations of SOD-1 protein levels | statistically significant effect |
| COC(=O)CCCCCCCC(C(=O)N[C@@H](CCCNC(=N)NS(=O)(=O)c1c(C)c(C)c2c(c1C)CCC(C)(C)O2)C(=O)N[C@H](C=O)CC(C)C)C1CCCC1 (stereo partly drawn) [Compound 20, 9-Methoxycarbonyl-2-cyclopentyl-nonanoyl-N^g-(2,2,5,7,8-pentamethylchroman-6-sulfonyl)-L-arginyl-L-leucinal] | 6.2 | -4 | 5 | 6.2 | effectively inhibit OVA processing | – | – | – | – |

— US5990083A, “Multicatalytic protease inhibitors” (Cephalon, Inc., priority 1997, dated 1999)
